In the SangsterLogP compilation one finds logP data, which are given here for ten compounds.

`CCCCCCCCCC(=O)N1c2ccc(C)cc2[C@H]2CN(C)CC[C@H]21` (relative stereo): the logP is 4.83.

`Cc1ccc2c(c1)[C@H]1CN(C)CC[C@H]1N2` (relative stereo) gave a logP of 1.6. Compound `CCCCCCCCC(=O)N1c2ccc(C)cc2[C@H]2CN(C)CC[C@H]21` (relative stereo) showed a logP of 4.41. As to `CC(=O)N1c2ccc(C)cc2[C@H]2CN(C)CC[C@H]21` (relative stereo), the log partition coefficient (logP) worked out at 1.25.

On to `CCCCCCCCCCCCCCCC(=O)N1c2ccc(C)cc2[C@H]2CN(C)CC[C@H]21` (relative stereo), for which the lipophilicity (logP) worked out at 7.33. `CCCCCCC(=O)N1c2ccc(C)cc2[C@H]2CN(C)CC[C@H]21` (relative stereo) gave a logP of 3.57. For `Cc1ccc2c(c1)[C@H]1CN(C)CC[C@H]1N2C(=O)C=Cc1ccccc1` (relative stereo), the logP was 3.49. In turn, `CCCCCCCCCCCCCC(=O)N1c2ccc(C)cc2[C@H]2CN(C)CC[C@H]21` (relative stereo) had a logP of 6.7. For `CCCCC(CC)C(=O)N1c2ccc(C)cc2C2CN(C)CCC21` (stereo not given) the value was 4.14; for `CCCCCCCCCCCC(=O)N1c2ccc(C)cc2[C@H]2CN(C)CC[C@H]21` (relative stereo), 5.66.

Broadly, the logP is the decadic logarithm of the partition coefficient of the neutral form, usually between octanol and water.
